Patent US20100086483A1, “METHOD OF MULTIDETECTOR COMPUTED TOMAGRAPHY” (Gilead Palo Alto, Inc., priority 2008, published 2010)

Experiments:
conscious dogs = experiment: Effects of caffeine on regadenoson-induced coronary vasodilation and changes in hemodynamics in conscious dogs (Part II); format: in vivo, dog; conditions: for duration of 2-fold increase in CBF / maximum CBF: time control group, 4 dogs
Protocol: Sixteen chronically instrumented male mongrel dogs weighing from 22-30 kg were used in the study. The animal protocol was approved by the Institutional Animal Care and Use Committee of New York Medical College and conforms to the Guide for the Care and Use of Laboratory Animal by the United States National Institutes of Health.
Dogs were sedated with acepromazine (0.3 mg/kg, IM) and anesthetized with pentobarbital sodium (25 mg/kg, IV). After intubation, dogs were artificially ventilated with room air. A thoracotomy was made in the fifth intercostal space using sterile techniques. A Tygon catheter (Cardiovascular Instruments, Wakefield, Mass.) was inserted into the descending thoracic aorta and another one was inserted into the left atrium. In 9 dogs, an ultrasound flow transducer (Transonic Systems, Ithaca, N.Y.) was placed around the left circumflex coronary artery. A solid-state pressure gauge (P6.5, Konisberg Instruments, Pasadena, Calif.) was placed into the left ventricle through the apex. The chest was closed in layers. The catheters and wires were tunneled subcutaneously and externalized through the skin at the back of the dog's neck. Dogs were allowed to recover from the surgery before experiments were performed, and were trained to lie on a table.
Phasic arterial pressure was measured by connecting the aortic catheter to a strain gauge transducer (P23 ID, LDS Test and Measurement, Valley View, Ohio). Left ventricular pressures were measured by the solid pressure gauge. CBF (mL/min) was measured from an ultrasound flow transducer using a Transonic flowmeter (T206, Transonic Systems, Ithaca, N.Y.). Two indices were used to describe the regadenoson-induced coronary vasodilation: 1) the maximum increase in CBF and 2) the duration of the 2-fold increase in CBF (the period of time that CBF was elevated to a level ≧2-fold of baseline CBF). All pressure and flow data were acquired and analyzed using a Ponemah System (Version 3.30 or 4.20, LDS Test and Measurement, Valley View, Ohio). MAP and HR were calculated from phasic blood pressure, and LV dP/dtMax was calculated from the left ventricular systolic pressure.
On the day of an experiment, a dog was placed on a table, where it lay quietly during the experiment. A catheter was inserted into a peripheral vein in the leg and attached to an infusion line to administer drugs without disturbing the dog. The experiment was begun after MAP, HR and CBF were stable.
(§1) Each dog received an IV injection of 5 μg/kg of regadenoson. […] LVSP, LV dP/dtMax, MAP, HR and CBF were recorded continuously. Blood samples were taken from the left atrial catheter at 1, 3, 5, 15, 30, 45 and 60 min following injections of regadenoson.
In 4 dogs, two doses of regadenoson (5 μg/kg, IV) were given 90 min apart (without blood sampling) to determine if there is tachyphylaxis of regadenoson-induced coronary vasodilation.
The statistical significance of a difference between the value of a parameter at baseline and at the indicated time point after drug administration was determined using a One-Way Repeated Measures ANOVA followed by Tukey's Test. […] Results with p<0.05 were considered to be significant. […] All data are presented as Mean±SEM.

[1] = Plasma regadenoson concentrations in conscious dogs; format: in vivo, dog
Protocol: as §1

[2] = regadenoson 5 μg/kg IV in the presence of caffeine 1 mg/kg
[3] = regadenoson 5 μg/kg IV in the presence of caffeine 2 mg/kg
[4] = regadenoson 5 μg/kg IV in the presence of caffeine 4 mg/kg
[5] = regadenoson 5 μg/kg IV in the presence of caffeine 10 mg/kg
[6] = regadenoson 5 μg/kg IV without caffeine (control of caffeine 1 mg/kg group), 0.5 min
[7] = regadenoson 5 μg/kg IV without caffeine (control of caffeine 1 mg/kg group), 1 min
[8] = regadenoson 5 μg/kg IV without caffeine (control of caffeine 1 mg/kg group), 2 min
[9] = regadenoson 5 μg/kg IV without caffeine (control of caffeine 1 mg/kg group), 3 min
[10] = regadenoson 5 μg/kg IV without caffeine (control of caffeine 1 mg/kg group), 4 min
[11] = regadenoson 5 μg/kg IV without caffeine (control of caffeine 1 mg/kg group), 5 min
[12] = regadenoson 5 μg/kg IV without caffeine (control of caffeine 1 mg/kg group), 10 min
[13] = regadenoson 5 μg/kg IV without caffeine (control of caffeine 1 mg/kg group), 15 min
[14] = regadenoson 5 μg/kg IV without caffeine (control of caffeine 1 mg/kg group), 20 min
[15] = regadenoson 5 μg/kg IV without caffeine (control of caffeine 2 mg/kg group), 0.5 min
[16] = regadenoson 5 μg/kg IV without caffeine (control of caffeine 2 mg/kg group), 1 min
[17] = regadenoson 5 μg/kg IV without caffeine (control of caffeine 2 mg/kg group), 2 min
[18] = regadenoson 5 μg/kg IV without caffeine (control of caffeine 2 mg/kg group), 3 min
[19] = regadenoson 5 μg/kg IV without caffeine (control of caffeine 2 mg/kg group), 4 min
[20] = regadenoson 5 μg/kg IV without caffeine (control of caffeine 2 mg/kg group), 5 min
[21] = regadenoson 5 μg/kg IV without caffeine (control of caffeine 2 mg/kg group), 10 min
[22] = regadenoson 5 μg/kg IV without caffeine (control of caffeine 2 mg/kg group), 15 min
[23] = regadenoson 5 μg/kg IV without caffeine (control of caffeine 2 mg/kg group), 20 min
[24] = regadenoson 5 μg/kg IV without caffeine (control of caffeine 4 mg/kg group), 0.5 min
[25] = regadenoson 5 μg/kg IV without caffeine (control of caffeine 4 mg/kg group), 1 min
[26] = regadenoson 5 μg/kg IV without caffeine (control of caffeine 4 mg/kg group), 2 min
[27] = regadenoson 5 μg/kg IV without caffeine (control of caffeine 4 mg/kg group), 3 min
[28] = regadenoson 5 μg/kg IV without caffeine (control of caffeine 4 mg/kg group), 4 min
[29] = regadenoson 5 μg/kg IV without caffeine (control of caffeine 4 mg/kg group), 5 min
[30] = regadenoson 5 μg/kg IV without caffeine (control of caffeine 4 mg/kg group), 10 min
[31] = regadenoson 5 μg/kg IV without caffeine (control of caffeine 4 mg/kg group), 15 min
[32] = regadenoson 5 μg/kg IV without caffeine (control of caffeine 4 mg/kg group), 20 min
[33] = regadenoson 5 μg/kg IV without caffeine (control of caffeine 10 mg/kg group), 0.5 min
[34] = regadenoson 5 μg/kg IV without caffeine (control of caffeine 10 mg/kg group), 1 min
[35] = regadenoson 5 μg/kg IV without caffeine (control of caffeine 10 mg/kg group), 2 min
[36] = regadenoson 5 μg/kg IV without caffeine (control of caffeine 10 mg/kg group), 3 min
[37] = regadenoson 5 μg/kg IV without caffeine (control of caffeine 10 mg/kg group), 4 min
[38] = regadenoson 5 μg/kg IV without caffeine (control of caffeine 10 mg/kg group), 5 min
[39] = regadenoson 5 μg/kg IV without caffeine (control of caffeine 10 mg/kg group), 10 min
[40] = regadenoson 5 μg/kg IV without caffeine (control of caffeine 10 mg/kg group), 15 min
[41] = regadenoson 5 μg/kg IV without caffeine (control of caffeine 10 mg/kg group), 20 min
[42] = regadenoson 5 μg/kg IV, absence of caffeine
[43] = regadenoson 5 μg/kg IV, absence of caffeine, n=8
[44] = regadenoson 5 μg/kg IV, absence of caffeine, n=9
[45] = first injection of regadenoson 5 μg/kg IV
[46] = second injection of regadenoson 5 μg/kg IV 90 min later

CNC(=O)c1cnn(-c2nc(N)c3ncn([C@@H]4O[C@H](CO)[C@@H](O)[C@H]4O)c3n2)c1 [Regadenoson, (1-{9-[(4S,2R,3R,5R)-3,4-dihydroxy-5-(hydroxymethyl)oxolan-2-yl]-6-aminopurin-2-yl}pyrazol-4-yl)-N-methylcarboxamide]
time regadenoson-increased CBF remained at ≧2-fold baseline levels (conscious dogs; in the presence of 1, 2 and 4 mg/kg caffeine): ≥ 3 min | decrease in LVSP from baseline (conscious dogs; [2]): 9±3% | peak decrease in MAP from baseline (conscious dogs; [2]): 13±2% | decrease in LVSP from baseline (conscious dogs; [3]): 6±2% | peak decrease in MAP from baseline (conscious dogs; [3]): 13±1% | decrease in LVSP from control (p>0.05) (conscious dogs; [4]): 1±5% | peak decrease in MAP from baseline (conscious dogs; [4]): 2±5% | increase in LVSP from control (conscious dogs; [5]): 11±7% | increase in MAP from baseline (insignificant) (conscious dogs; [5]): 9±6% | peak increase in HR from baseline (conscious dogs; regadenoson 5 μg/kg IV with caffeine 1 mg/kg): 124±12% | peak increase in HR from baseline (conscious dogs; regadenoson 5 μg/kg IV with caffeine 2 mg/kg): 109±21% | peak increase in HR from baseline (conscious dogs; regadenoson 5 μg/kg IV with caffeine 4 mg/kg): 79±20% | peak increase in HR from baseline (conscious dogs; regadenoson 5 μg/kg IV with caffeine 10 mg/kg): 74±16% | HR (conscious dogs; [6]): 138 ± 10 bpm | MAP (conscious dogs; [6]): 97 ± 2 mm Hg | HR (conscious dogs; [7]): 144 ± 13 bpm | MAP (conscious dogs; [7]): 93 ± 3 mm Hg | HR (conscious dogs; [8]): 142 ± 9 bpm | MAP (conscious dogs; [8]): 92 ± 4 mm Hg | HR (conscious dogs; [9]): 131 ± 9 bpm | MAP (conscious dogs; [9]): 92 ± 3 mm Hg | HR (conscious dogs; [10]): 125 ± 8 bpm | MAP (conscious dogs; [10]): 94 ± 3 mm Hg | HR (conscious dogs; [11]): 121 ± 8 bpm | MAP (conscious dogs; [11]): 96 ± 3 mm Hg | HR (conscious dogs; [12]): 100 ± 7 bpm | MAP (conscious dogs; [12]): 97 ± 4 mm Hg | HR (conscious dogs; [13]): 94 ± 7 bpm | MAP (conscious dogs; [13]): 96 ± 4 mm Hg | HR (conscious dogs; [14]): 89 ± 7 bpm | MAP (conscious dogs; [14]): 96 ± 3 mm Hg | HR (conscious dogs; [15]): 160 ± 13 bpm | MAP (conscious dogs; [15]): 89 ± 5 mm Hg | HR (conscious dogs; [16]): 145 ± 7 bpm | MAP (conscious dogs; [16]): 89 ± 5 mm Hg | HR (conscious dogs; [17]): 150 ± 4 bpm | MAP (conscious dogs; [17]): 91 ± 5 mm Hg | HR (conscious dogs; [18]): 137 ± 5 bpm | MAP (conscious dogs; [18]): 91 ± 3 mm Hg | HR (conscious dogs; [19]): 127 ± 4 bpm | MAP (conscious dogs; [19]): 93 ± 4 mm Hg | HR (conscious dogs; [20]): 129 ± 6 bpm | MAP (conscious dogs; [20]): 90 ± 3 mm Hg | HR (conscious dogs; [21]): 104 ± 5 bpm | MAP (conscious dogs; [21]): 91 ± 2 mm Hg | HR (conscious dogs; [22]): 104 ± 6 bpm | MAP (conscious dogs; [22]): 96 ± 3 mm Hg | HR (conscious dogs; [23]): 93 ± 7 bpm | MAP (conscious dogs; [23]): 97 ± 3 mm Hg | HR (conscious dogs; [24]): 166 ± 18 bpm | MAP (conscious dogs; [24]): 107 ± 6 mm Hg | HR (conscious dogs; [25]): 163 ± 8 bpm | MAP (conscious dogs; [25]): 95 ± 5 mm Hg | HR (conscious dogs; [26]): 158 ± 6 bpm | MAP (conscious dogs; [26]): 99 ± 4 mm Hg | HR (conscious dogs; [27]): 141 ± 4 bpm | MAP (conscious dogs; [27]): 98 ± 4 mm Hg | HR (conscious dogs; [28]): 131 ± 6 bpm | MAP (conscious dogs; [28]): 100 ± 2 mm Hg | HR (conscious dogs; [29]): 128 ± 7 bpm | MAP (conscious dogs; [29]): 100 ± 2 mm Hg | HR (conscious dogs; [30]): 113 ± 5 bpm | MAP (conscious dogs; [30]): 100 ± 2 mm Hg | HR (conscious dogs; [31]): 102 ± 6 bpm | MAP (conscious dogs; [31]): 101 ± 4 mm Hg | HR (conscious dogs; [32]): 101 ± 6 bpm | MAP (conscious dogs; [32]): 102 ± 4 mm Hg | HR (conscious dogs; [33]): 149 ± 15 bpm | MAP (conscious dogs; [33]): 93 ± 3 mm Hg | HR (conscious dogs; [34]): 144 ± 7 bpm | MAP (conscious dogs; [34]): 86 ± 4 mm Hg | HR (conscious dogs; [35]): 148 ± 5 bpm | MAP (conscious dogs; [35]): 89 ± 4 mm Hg | HR (conscious dogs; [36]): 135 ± 4 bpm | MAP (conscious dogs; [36]): 89 ± 4 mm Hg | HR (conscious dogs; [37]): 130 ± 5 bpm | MAP (conscious dogs; [37]): 92 ± 4 mm Hg | HR (conscious dogs; [38]): 127 ± 6 bpm | MAP (conscious dogs; [38]): 92 ± 4 mm Hg | HR (conscious dogs; [39]): 105 ± 4 bpm | MAP (conscious dogs; [39]): 95 ± 4 mm Hg | HR (conscious dogs; [40]): 98 ± 3 bpm | MAP (conscious dogs; [40]): 93 ± 6 mm Hg | HR (conscious dogs; [41]): 99 ± 7 bpm | MAP (conscious dogs; [41]): 98 ± 5 mm Hg | peak increase in LV dP/dtMax from baseline (conscious dogs; [42]): 65±7% | duration of the 2-fold increase in CBF (conscious dogs; [43]): 515 ± 71 s | peak CBF (conscious dogs; [43]): 191 ± 7 mL/min | peak decrease in LVSP from baseline (conscious dogs; [43]): 9±1% | peak decrease in MAP from baseline (conscious dogs; [44]): 15±2% | peak increase in HR from baseline (conscious dogs; [44]): 114±14% | duration of 2-fold increase in CBF (conscious dogs; [45]): 401 ± 45 s | maximum CBF (conscious dogs; [45]): 178 ± 17 mL/min | duration of 2-fold increase in CBF (conscious dogs; [46]): 395 ± 43 s | maximum CBF (conscious dogs; [46]): 176 ± 6 mL/min | differences in baseline CBF, maximum CBF or duration of 2-fold increase in CBF between two injections (tachyphylaxis) (conscious dogs; two injections of regadenoson 5 μg/kg IV 90 min apart): no statistically significant differences | pharmacokinetic profiles of regadenoson in presence of caffeine ([1]; caffeine at 1, 2, 4 or 10 mg/kg): not changed | time of peak plasma regadenoson concentration [1, 42]: ~1 min
